Results taken from US20200187502A1, “MICROBIOCIDAL OXADIAZOLE DERIVATIVES” (SYNGENTA PARTICIPATIONS AG, priority 2017, published 2020).

Tests used:
[1] = test system: Puccinia recondita f. Sp. Tritici; assay: Fungicidal activity, wheat leaf disc curative (brown rust); type: in vivo; conditions: foliar, 200 ppm in the applied formulation, wheat leaf segments cv. Kanzler, curative (applied 1 day after inoculation), compared to untreated control, 6 to 8 days after application, read-out: disease control
Experimental: (§1) Leaf disks or leaf segments of various plant species are cut from plants grown in a greenhouse. The cut leaf disks or segments are placed in multiwell plates (24-well format) onto water agar. The leaf disks are sprayed with a test solution before (preventative) or after (curative) inoculation. Compounds to be tested are prepared as DMSO solutions (max. 10 mg/ml) which are diluted to the appropriate concentration with 0.025% Tween20 just before spraying. The inoculated leaf disks or segments are incubated under defined conditions (temperature, relative humidity, light, etc.) according to the respective test system. A single evaluation of disease level is carried out 3 to 14 days after inoculation, depending on the pathosystem. Percent disease control relative to the untreated check leaf disks or segments is then calculated.
Wheat leaf segments cv. Kanzler are placed on agar in multiwell plates (24-well format). The leaf segments are then inoculated with a spore suspension of the fungus. Plates were stored in darkness at 19° C. and 75% relative humidity. The formulated test compound diluted in water was applied 1 day after inoculation. The leaf segments were incubated at 19° C. and 75% relative humidity under a light regime of 12 hours light/12 hours darkness in a climate cabinet and the activity of a compound was assessed as percent disease control compared to untreated when an appropriate level of disease damage appears in untreated check leaf segments (6 to 8 days after application).
(§2) The following compounds at 200 ppm in the applied formulation give at least 80% disease control in this test when compared to untreated control leaf disks under the same conditions, which show extensive disease development.

[2] = test system: Glomerella lacenarium (Colletotrichum lacenarium); assay: Fungicidal activity, liquid culture, cucumber preventative (anthracnose); type: cell-based; conditions: 20 ppm in the applied formulation, liquid culture in PDB, inhibition of growth measured photometrically 3 to 4 days after application, compared to untreated control, read-out: disease control
Experimental: Mycelia fragments or conidia suspensions of a fungus prepared either freshly from liquid cultures of the fungus or from cryogenic storage, are directly mixed into nutrient broth. DMSO solutions of the test compound (max. 10 mg/ml) are diluted with 0.025% Tween20 by a factor of 50 and 10 μl of this solution is pipetted into a microtiter plate (96-well format). The nutrient broth containing the fungal spores/mycelia fragments is then added to give an end concentration of the tested compound. The test plates are incubated in the dark at 24° C. and 96% relative humidity. The inhibition of fungal growth is determined photometrically after 2 to 7 days, depending on the pathosystem, and percent antifungal activity relative to the untreated check is calculated.
Conidia of the fungus from cryogenic storage are directly mixed into nutrient broth (PDB—potato dextrose broth). After placing a (DMSO) solution of test compound into a microtiter plate (96-well format), the nutrient broth containing the fungal spores is added. The test plates are incubated at 24° C. and the inhibition of growth is measured photometrically 3 to 4 days after application.
The following compounds at 20 ppm in the applied formulation give at least 80% disease control in this test when compared to untreated control under the same conditions, which show extensive disease development.

[3] = test system: Puccinia recondita f. Sp. Tritici; assay: Fungicidal activity, wheat leaf disc preventative (brown rust); type: in vivo; conditions: foliar, 200 ppm in the applied formulation, wheat leaf segments cv. Kanzler, compared to untreated control, 7 to 9 days after application, read-out: disease control
Experimental: as §1
Wheat leaf segments cv. Kanzler were placed on agar in multiwell plates (24-well format) and sprayed with the formulated test compound diluted in water. The leaf disks were inoculated with a spore suspension of the fungus 1 day after application. The inoculated leaf segments were incubated at 19° C. and 75% relative humidity (rh) under a light regime of 12 hours light/12 hours darkness in a climate cabinet and the activity of a compound was assessed as percent disease control compared to untreated when an appropriate level of disease damage appears in untreated check leaf segments (7 to 9 days after application).
as §2

Row | Structure (SMILES) | pest or weed control at 200 ppm [1] [%] | inhibition of growth at 20 ppm [2] [%] | pest or weed control at 200 ppm [3] [%]
1 | COC(C)C(=O)N(Cc1ccc(-c2noc(C(F)(F)F)n2)s1)C(C)C (stereo not drawn) [Compound 4.18, N-isopropyl-2-methoxy-N-[[5-[5-(trifluoromethyl)-1,2,4-oxadiazol-3-yl]-2-thienyl]methyl]propanamide] | ≥ 80 | ≥ 80 | 
2 | CC(C)N(Cc1ccc(-c2noc(C(F)(F)F)n2)s1)C(=O)C1CC1(F)F (stereo not drawn) [Compound 5.33, 2,2-difluoro-N-isopropyl-N-[[5-[5-(trifluoromethyl)-1,2,4-oxadiazol-3-yl]-2-thienyl]methyl]cyclopropanecarboxamide] | ≥ 80 | ≥ 80 | 
3 | COCCN(CCOC)C(=O)N(Cc1ccc(-c2noc(C(F)(F)F)n2)s1)OC [Compound 1.56, 1-methoxy-3,3-bis(2-methoxyethyl)-1-[[5-[5-(trifluoromethyl)-1,2,4-oxadiazol-3-yl]-2-thienyl]methyl]urea] | ≥ 80 | ≥ 80 | 
4 | CC(C)N(Cc1ccc(-c2noc(C(F)(F)F)n2)s1)C(=O)C1CCCO1 (stereo not drawn) [Compound 5.31, N-isopropyl-N-[[5-[5-(trifluoromethyl)-1,2,4-oxadiazol-3-yl]-2-thienyl]methyl]tetrahydrofuran-2-carboxamide] | ≥ 80 | ≥ 80 | 
5 | COC(C)C(=O)N(OC)C(C)c1ccc(-c2noc(C(F)(F)F)n2)s1 (stereo not drawn) [Compound 1.49, N,2-dimethoxy-N-[1-[5-[5-(trifluoromethyl)-1,2,4-oxadiazol-3-yl]-2-thienyl]ethyl]propanamide] | ≥ 80 | ≥ 80 | 
6 | CCC(C)C(=O)N(Cc1ccc(-c2noc(C(F)(F)F)n2)s1)OCC(F)F (stereo not drawn) [Compound 4.66, N-(2,2-difluoroethoxy)-2-methyl-N-[[5-[5-(trifluoromethyl)-1,2,4-oxadiazol-3-yl]-2-thienyl]methyl]butanamide] | ≥ 80 | ≥ 80 | 
7 | O=C(CC(F)(F)F)N(Cc1ccc(-c2noc(C(F)(F)F)n2)s1)OCC(F)F [Compound 4.68, N-(2,2-difluoroethoxy)-3,3,3-trifluoro-N-[[5-[5-(trifluoromethyl)-1,2,4-oxadiazol-3-yl]-2-thienyl]methyl]propanamide] | ≥ 80 | ≥ 80 | 
8 | CCC(C)C(=O)N(CC)Cc1ccc(-c2noc(C(F)(F)F)n2)s1 (stereo not drawn) [Compound 4.27, N-ethyl-2-methyl-N-[[5-[5-(trifluoromethyl)-1,2,4-oxadiazol-3-yl]-2-thienyl]methyl]butanamide] | ≥ 80 | ≥ 80 | 
9 | Cc1ccc(S(=O)(=O)N(C)Cc2ccc(-c3noc(C(F)(F)F)n3)s2)cc1 [Compound 6.28, N,4-dimethyl-N-[[5-[5-(trifluoromethyl)-1,2,4-oxadiazol-3-yl]-2-thienyl]methyl]benzenesulfonamide] | ≥ 80 |  | 
10 | O=C(C1CCC1)N(Cc1ccc(-c2noc(C(F)(F)F)n2)s1)OCC(F)F [Compound 5.47, N-(2,2-difluoroethoxy)-N-[[5-[5-(trifluoromethyl)-1,2,4-oxadiazol-3-yl]-2-thienyl]methyl]cyclobutanecarboxamide] |  | ≥ 80 | ≥ 80
11 | CC(=O)N(Cc1ccc(-c2noc(C(F)(F)F)n2)s1)OCC(F)F [Compound 4.69, N-(2,2-difluoroethoxy)-N-[[5-[5-(trifluoromethyl)-1,2,4-oxadiazol-3-yl]-2-thienyl]methyl]acetamide] |  | ≥ 80 | ≥ 80
12 | O=C(CC(F)(F)F)N(Cc1ccc(-c2noc(C(F)(F)F)n2)s1)C1CC1 [Compound 4.60, N-cyclopropyl-3,3,3-trifluoro-N-[[5-[5-(trifluoromethyl)-1,2,4-oxadiazol-3-yl]-2-thienyl]methyl]propanamide] |  | ≥ 80 | ≥ 80
13 | CCN(Cc1ccc(-c2noc(C(F)(F)F)n2)s1)C(=O)C(=O)c1cccs1 [Compound 6.45, N-ethyl-2-oxo-2-(2-thienyl)-N-[[5-[5-(trifluoromethyl)-1,2,4-oxadiazol-3-yl]-2-thienyl]methyl]acetamide] |  | ≥ 80 | ≥ 80
14 | COCC(=O)N(C)Cc1ccc(-c2noc(C(F)(F)F)n2)s1 [Compound 4.32, 2-methoxy-N-methyl-N-[[5-[5-(trifluoromethyl)-1,2,4-oxadiazol-3-yl]-2-thienyl]methyl]acetamide] |  | ≥ 80 | ≥ 80
15 | O=C(C1CCC1)N(Cc1ccc(-c2noc(C(F)(F)F)n2)s1)C1CC1 [Compound 5.38, N-cyclopropyl-N-[[5-[5-(trifluoromethyl)-1,2,4-oxadiazol-3-yl]-2-thienyl]methyl]cyclobutanecarboxamide] |  | ≥ 80 | ≥ 80
16 | CS(=O)(=O)N(Cc1ccc(-c2noc(C(F)(F)F)n2)s1)C1CC1 [Compound 6.1, N-cyclopropyl-N-[[5-[5-(trifluoromethyl)-1,2,4-oxadiazol-3-yl]-2-thienyl]methyl]methanesulfonamide] |  | ≥ 80 | ≥ 80
17 | CN(C)S(=O)(=O)N(C)Cc1ccc(-c2noc(C(F)(F)F)n2)s1 [Compound 6.29, N-(dimethylsulfamoyl)-N-methyl-1-[5-[5-(trifluoromethyl)-1,2,4-oxadiazol-3-yl]-2-thienyl]methanamine] |  | ≥ 80 | ≥ 80
18 | O=C(C1CCOC1)N(Cc1ccc(-c2noc(C(F)(F)F)n2)s1)OCC(F)F (stereo not drawn) [Compound 5.46, N-(2,2-difluoroethoxy)-N-[[5-[5-(trifluoromethyl)-1,2,4-oxadiazol-3-yl]-2-thienyl]methyl]tetrahydrofuran-3-carboxamide] |  | ≥ 80 | ≥ 80
19 | CCS(=O)(=O)N(Cc1ccc(-c2noc(C(F)(F)F)n2)s1)C1CC1 [Compound 6.35, N-cyclopropyl-N-[[5-[5-(trifluoromethyl)-1,2,4-oxadiazol-3-yl]-2-thienyl]methyl]ethanesulfonamide] |  | ≥ 80 | ≥ 80
20 | O=C(C(=O)N(Cc1ccc(-c2noc(C(F)(F)F)n2)s1)OCC(F)F)c1cccs1 [Compound 6.63, N-(2,2-difluoroethoxy)-2-oxo-2-(2-thienyl)-N-[[5-[5-(trifluoromethyl)-1,2,4-oxadiazol-3-yl]-2-thienyl]methyl]acetamide] |  | ≥ 80 | ≥ 80
21 | O=C(CC1CC1)N(Cc1ccc(-c2noc(C(F)(F)F)n2)s1)OCC(F)F [Compound 5.45, 2-cyclopropyl-N-(2,2-difluoroethoxy)-N-[[5-[5-(trifluoromethyl)-1,2,4-oxadiazol-3-yl]-2-thienyl]methyl]acetamide] |  | ≥ 80 | ≥ 80
22 | O=C(N(Cc1ccc(-c2noc(C(F)(F)F)n2)s1)C1CC1)N(CC(F)F)C1CC1 [Compound 5.60, 1,3-dicyclopropyl-1-(2,2-difluoroethyl)-3-[[5-[5-(trifluoromethyl)-1,2,4-oxadiazol-3-yl]-2-thienyl]methyl]urea] |  | ≥ 80 | ≥ 80
23 | CCS(=O)(=O)N(C)Cc1ccc(-c2noc(C(F)(F)F)n2)s1 [Compound 6.25, N-methyl-N-[[5-[5-(trifluoromethyl)-1,2,4-oxadiazol-3-yl]-2-thienyl]methyl]ethanesulfonamide] |  | ≥ 80 | ≥ 80
